Measurements taken from US20070010402A1, “Novel herbicides, usage thereof, novel thienopyrimidine derivatives, intermediates of the same, and process for production thereof” (NIHON NOHYAKU CO., LTD.,, priority 2002, published 2007).

Columns and labels:
Echinochloa oryzicola = assay: Submerged foliar treatment test (Test Example 3); format: in vivo; conditions: water depth 3 cm, cotyledon to 1-leaf stage, wettable powder, active ingredient 10 g/a, 28th day from the treatment
Procedure: (§1) The herbicidal effect was evaluated in terms of herbicidal rate obtained from the following equation: Herbicidal rate (%)=[1−(Weight of weeds above the ground in a treated plot)/(Weight of weeds above the ground in a non-treated plot)]×100
(§2) and was expressed by herbicidal index according to the following criteria.
(§3) Alluvial soil from a paddy field was put in a resin-made vat having an area of 200 cm^2. After fertilization, seeds of Echinochloa oryzicola, Rotala indica and Scirpus juncoides were cast on the soil and uniformly covered with the soil, and water was poured onto the soil to keep a water depth of 3 cm. Then, cultivation was continued in a greenhouse, and when the weeds to be tested reached the cotyledon stage to 1-leaf stage, the wettable powder obtained in Formulation Example 1 was diluted with water and a predetermined amount thereof was added dropwise uniformly to the weeds by means of a pipette to give 10 g of the active ingredient per an are. Thereafter, cultivation was further continued in the greenhouse, and the herbicidal effect was examined on the 28th day from the treatment. The results obtained are shown in Table 9 (the compound numbers in Table 9 correspond to those in Tables 1 to 6).

Rotala indica = assay: Submerged foliar treatment test (Test Example 3); format: in vivo; conditions: water depth 3 cm, cotyledon to 1-leaf stage, wettable powder, active ingredient 10 g/a, 28th day from the treatment
Procedure: as §1, §2, §3

Scirpus juncoides = assay: Submerged foliar treatment test (Test Example 3); format: in vivo; conditions: water depth 3 cm, cotyledon to 1-leaf stage, wettable powder, active ingredient 10 g/a, 28th day from the treatment
Procedure: as §1, §2, §3

Chenopodium album = assay: Field soil treatment test (Test Example 2); format: in vivo; conditions: soil spray after seeding, wettable powder, active ingredient 10 g/a, 21st day from the treatment
Procedure: (§4) The herbicidal effect was evaluated in terms of herbicidal rate obtained from the following equation: Herbicidal rate (%)=[1−(Weight of weeds above the ground in a treated plot)/(Weight of weeds above the ground in a non-treated plot)]×100 and was expressed by herbicidal index according to the following criteria. [table] Alluvial soil from a field was put in a resin-made vat having an area of 200 cm^2. After fertilization, the seeds of Digitaria ciliaris, Chenopodium album and Polygonum lapathifolium were cast on the soil and uniformly covered with the soil. The wettable powder obtained in Formulation Example 1 was diluted with water and a predetermined amount thereof was sprayed uniformly to the soil by means of a small-sized power pressure spray so as to give 10 g of the active ingredient per an are. Thereafter, cultivation was further continued in the greenhouse, and the herbicidal effect was examined on the 21st day from the treatment. The results obtained are shown in Table 8 (the compound numbers in Table 8 correspond to those in Tables 1 to 6).

Digitaria ciliaris = assay: Field soil treatment test (Test Example 2); format: in vivo; conditions: soil spray after seeding, wettable powder, active ingredient 10 g/a, 21st day from the treatment
Procedure: as §4

Polygonum lapathifolium = assay: Field soil treatment test (Test Example 2); format: in vivo; conditions: soil spray after seeding, wettable powder, active ingredient 10 g/a, 21st day from the treatment
Procedure: as §4

Brassica juncea = assay: Field foliar treatment test (Test Example 1); format: in vivo; conditions: foliar spray at 1.0- to 2.0-leaf stage, wettable powder, active ingredient 10 g/a, 21st day from the treatment
Procedure: (§5) Alluvial soil from a field was put in a resin-made vat having an area of 200 cm^2. After fertilization, the seeds of Echinochloa crus-galli, Brassica juncea, and Ipomoea purpurea were cast on the soil and uniformly covered with the soil. Then, cultivation was continued in a greenhouse, and when the weeds to be tested reached the 1.0- to 2.0-leaf stage, the wettable powder obtained in Formulation Example 1 was diluted with water and a predetermined amount thereof was sprayed uniformly to the weeds by means of a small-sized power pressure spray to give 10 g of the active ingredient per an are. Thereafter, cultivation was further continued in the greenhouse, and the herbicidal effect was examined on the 21st day from the treatment. The results obtained are shown in Table 7 (the compound numbers in Table 7 correspond to those in Table 1 to 6). The herbicidal effect was evaluated in terms of herbicidal rate obtained from the following equation: Herbicidal rate (%)=[1−(Weight of weeds above the ground in a treated plot)/(Weight of weeds above the ground in a non-treated plot)]×100 and was expressed by herbicidal index according to the following criteria. [table]

Echinochloa crus-galli = assay: Field foliar treatment test (Test Example 1); format: in vivo; conditions: foliar spray at 1.0- to 2.0-leaf stage, wettable powder, active ingredient 10 g/a, 21st day from the treatment
Procedure: as §5

Ipomoea purpurea = assay: Field foliar treatment test (Test Example 1); format: in vivo; conditions: foliar spray at 1.0- to 2.0-leaf stage, wettable powder, active ingredient 10 g/a, 21st day from the treatment
Procedure: as §5

Row | melting point | SMILES | Herbicidal effect Chenopodium album (herbicidal index) (Chenopodium album) | Herbicidal effect Digitaria ciliaris (herbicidal index) (Digitaria ciliaris) | Herbicidal effect Polygonum lapathifolium (herbicidal index) (Polygonum lapathifolium) | also measured
1 | 251 to 253 °C (dec.) | Cc1cc2c(-c3cccc(C(F)(F)F)c3)nc(O)nc2s1 [Compound No. 4-3, 6-methyl-4-[3-(trifluoromethyl)phenyl]thieno[2,3-d]pyrimidine-2-ol] |  |  |  | 
2 | 226 to 227 °C (dec.) | Cc1cc2c(-c3cccc(C(F)(F)F)c3)nc(C(=O)O)nc2s1 [Compound No. 6-180, 6-methyl-4-[3-(trifluoromethyl)phenyl]thieno[2,3-d]pyrimidine-2-carboxylic acid] |  |  |  | 
3 | 113 °C | CSc1nc(-c2ccc(C(F)(F)F)cc2)c2cc(C)sc2n1 [Compound No. 6-171, 6-methyl-2-methylthio-4-[4-(trifluoromethyl)phenyl]thieno[2,3-d]pyrimidine] |  |  |  | 
4 | 70 to 72 °C | Cc1cc2c(-c3cccc(C(F)(F)F)c3)ncnc2s1 [Compound No. 6-9, 6-methyl-4-[3-(trifluoromethyl)phenyl]thieno[2,3-d]pyrimidine] |  |  |  | 
5 | 134 to 136 °C | Cc1cc2c(-c3cccc(C(F)(F)F)c3)nc(-c3ccc(C(F)(F)F)cc3)nc2s1 [Compound No. 6-18, 6-methyl-2-[4-(trifluoromethyl)phenyl]-4-[3-(trifluoromethyl)phenyl]thieno[2,3-d]pyrimidine] |  |  |  | Herbicidal effect Echinochloa oryzicola (herbicidal index) (Echinochloa oryzicola): 3 (51 to 70); Herbicidal effect Rotala indica (herbicidal index) (Rotala indica): 4 (71 to 90); Herbicidal effect Scirpus juncoides (herbicidal index) (Scirpus juncoides): 1 (6 to 30)
6 | 204 to 206 °C (dec.) | Cc1cc2c(-c3sc(C=O)cc3C)nc(Cl)nc2s1 [Compound No. 5-23, 2-chloro-4-(5-formyl-3-methylthiophen-2-yl)-6-methylthieno[2,3-d]pyrimidine] |  |  |  | 
7 | 118 to 120 °C | Cc1cc2c(-c3cccc(Cl)c3)nc(Cl)nc2s1 [Compound No. 5-15, 2-chloro-4-(3-chlorophenyl)-6-methylthieno[2,3-d]pyrimidine] |  |  |  | Herbicidal effect Echinochloa oryzicola (herbicidal index) (Echinochloa oryzicola): 5 (91 to 100); Herbicidal effect Rotala indica (herbicidal index) (Rotala indica): 5 (91 to 100); Herbicidal effect Scirpus juncoides (herbicidal index) (Scirpus juncoides): 3 (51 to 70)
8 | 174 to 176 °C (dec.) | Cc1cc2nc(Cl)nc(-c3cccc(C(F)(F)F)c3)c2s1 [Compound No. 5-34, 2-chloro-6-methyl-4-[3-(trifluoromethyl)phenyl]thieno[3,2-d]pyrimidine] |  |  |  | 
9 |  | Cc1cc2c(-c3cccc(C(F)(F)F)c3)nc(-n3cccc3)nc2s1 [6-189] | 4 (71 to 90) | 5 (91 to 100) | 3 (51 to 70) | 
10 | 108 °C | Cc1cc2c(-c3cccc(C(F)(F)F)c3)nc(Cl)nc2s1 [Compound No. 5-4, 2-chloro-6-methyl-4-[3-(trifluoromethyl)phenyl]thieno[2,3-d]pyrimidine] |  |  |  | 
11 |  | Cc1cc2c(-c3cccc(OC(F)F)c3)nc(OCC(F)F)nc2s1 [6-122] | 5 (91 to 100) | 5 (91 to 100) | 5 (91 to 100) | 
12 |  | C=CCOc1nc(-c2cccc(C(F)(F)F)c2)c2cc(C)sc2n1 [6-88] | 5 (91 to 100) | 5 (91 to 100) | 5 (91 to 100) | 
13 | 106 °C | Cc1cc2nc(OC(C)C)nc(-c3cccc(C(F)(F)F)c3)c2s1 [Compound No. 6-231, 2-isopropoxy-6-methyl-4-[3-(trifluoromethyl)phenyl]thieno[3,2-d]pyrimidine] |  |  |  | Herbicidal effect Brassica juncea (herbicidal index) (Brassica juncea): 5 (91 to 100); Herbicidal effect Echinochloa crus-galli (herbicidal index) (Echinochloa crus-galli): 4 (71 to 90); Herbicidal effect Ipomoea purpurea (herbicidal index) (Ipomoea purpurea): 5 (91 to 100)
14 | > 300 °C | Cc1cc2c(-c3cccnc3Cl)nc(O)nc2s1 [Compound No. 4-22, 4-(2-chloropyridine-3-yl)-6-methylthieno[2,3-d]pyrimidine-2-ol] |  |  |  | 
15 |  | Cc1cc2c(-c3cccc(OC(F)(F)F)c3)nc(OCCF)nc2s1 [6-107] | 5 (91 to 100) | 5 (91 to 100) | 5 (91 to 100) | 
16 |  | Cc1cc2c(-c3cccc(OC(F)(F)F)c3)nc(-n3ccc(C(F)(F)F)n3)nc2s1 [6-199] | 5 (91 to 100) | 5 (91 to 100) | 5 (91 to 100) | 
17 | 127 °C | Cc1cc2c(-c3sccc3C)nc(Cl)nc2s1 [Compound No. 5-22, 2-chloro-6-methyl-4-(3-methylthiophen-2-yl)thieno[2,3-d]pyrimidine] |  |  |  | 
18 |  | Cc1cc2c(-c3cccc(C(F)(F)F)c3)nc(OCC(F)(F)C(F)F)nc2s1 [6-103] | 5 (91 to 100) | 5 (91 to 100) | 5 (91 to 100) | 
19 |  | Cc1cc2c(-c3cccc(C(F)(F)F)c3)nc(-n3ccc(C(F)(F)F)n3)nc2s1 [6-198] | 5 (91 to 100) | 5 (91 to 100) | 5 (91 to 100) | 
20 |  | Cc1cc2c(-c3cccc(C(F)(F)F)c3)nc(OC(C)(C)C)nc2s1 [6-27] | 5 (91 to 100) | 5 (91 to 100) | 4 (71 to 90) | 
21 |  | Cc1cc2c(-c3cccc(OC(F)(F)F)c3)nc(OC(C)C)nc2s1 [6-36] | 5 (91 to 100) | 5 (91 to 100) | 5 (91 to 100) | 
22 |  | Cc1cc2c(-c3cccc(OC(F)(F)F)c3)nc(OCC(F)(F)C(F)(F)F)nc2s1 [6-111] | 5 (91 to 100) | 5 (91 to 100) | 5 (91 to 100) | 
23 |  | Cc1cc2c(-c3cccc(C(F)(F)F)c3)nc(OC(C)C(F)(F)F)nc2s1 (centres unmarked) [6-100] | 5 (91 to 100) | 5 (91 to 100) | 5 (91 to 100) | 
24 |  | Cc1cc2c(-c3cccc(C(F)(F)F)c3)nc(OS(C)(=O)=O)nc2s1 [6-148] | 5 (91 to 100) | 5 (91 to 100) | 4 (71 to 90) | 
25 | 233 °C | CNc1nc(-c2ccc(C(F)(F)F)cc2)c2cc(C)sc2n1 [Compound No. 6-168, 6-methyl-2-(methylamino)-4-[4-(trifluoromethyl)phenyl]thieno[2,3-d]pyrimidine] |  |  |  | 
26 | 85 °C | Cc1cc2c(Oc3cccc(C(F)(F)F)c3)nc(CCC(F)(F)F)nc2s1 [Compound No. 6-130, 6-methyl-4-[3-(trifluoromethyl)phenoxy]-2-(3,3,3-trifluoropropyl)thieno[2,3-d]pyrimidine] |  |  |  | Herbicidal effect Brassica juncea (herbicidal index) (Brassica juncea): 4 (71 to 90); Herbicidal effect Echinochloa crus-galli (herbicidal index) (Echinochloa crus-galli): 2 (31 to 50); Herbicidal effect Ipomoea purpurea (herbicidal index) (Ipomoea purpurea): 3 (51 to 70)
27 |  | Cc1cc2c(-c3cccc(SC(F)(F)F)c3)nc(OCC(F)(F)C(F)F)nc2s1 [6-119] | 5 (91 to 100) | 5 (91 to 100) | 5 (91 to 100) | 
